Experiment [1] relates to OPM-2. The experiment in a line: Cellular viability (Cell TiterGlo) OPM-2. It counts as cell-based. The following applies: Homo sapiens; OPM-2 cells, 72 hours, 10% FBS; read-out: IC50 on cellular proliferation, OPM-2. As to the method:
(§1) Human cancer cell lines ALMC-1, ALMC-2, K562, H929, and OPM-2 were cultured in media supplemented with 10% fetal bovine serum (FBS). To evaluate compound effect on cellular proliferation, cells were plated at 1,000 cells/well in 96-well tissue culture plates in a total volume of 90 μL medium supplemented with 10% FBS (Sigma, Saint Louis, Mo.). 24 hours later, 10 μL of compound (in a 2-fold serial dilution) is added to the cells for a top concentration of 50 μM and a final DMSO concentration <1%. After 72 hours, 50 μL of Cell TiterGlo (Promega, Madison, Wis., USA) reagent is added to each well and plates are incubated at room temperature, in the dark, for 30 minutes. Luminescence is measured on a BioTek Cytation 3. Luminescence values are imported into a template in XLFit (Guildford, Surrey, UK) that uses a four-parameter fit to generate an IC50 value for each compound dilution series on the plate.

In experiment [2] the test system is H929. In words: Cellular viability (Cell TiterGlo) H929. The experiment is classed as cell-based. The note with it: Homo sapiens, NCI-H929; H929 cells, 72 hours, 10% FBS; read-out: IC50 on cellular proliferation, H929. The protocol:
as §1

Experiment [3] relates to K562. In words: Cellular viability (Cell TiterGlo) K562. It counts as cell-based. The note with it: Homo sapiens; K562 cells, 72 hours, 10% FBS; read-out: IC50 on cellular proliferation, K562. The protocol: as §1
Experiment [4] concerns ALMC-1. In words: Cellular viability (Cell TiterGlo) ALMC-1. It counts as cell-based. The note with it: Homo sapiens, ALMC1; ALMC-1 cells, 72 hours, 10% FBS; read-out: IC50 on cellular proliferation, ALMC-1. The protocol:
as §1

The subject of experiment [5] is ALMC-2. In words: Cellular viability (Cell TiterGlo) ALMC-2. The note with it: Homo sapiens, ALMC2; ALMC-2 cells, 72 hours, 10% FBS; read-out: IC50 on cellular proliferation, ALMC-2. The experiment is classed as cell-based. As to the method:
as §1

Experiment [6] concerns the target recombinant Mcl-1 (residues 172-327) (Homo sapiens (Human), UniProt Q07820). The experiment in a line: Fluorescence polarization anisotropy competition assay (FITC-Bak or FITC-Bim BH3 peptide) with Mcl-1. It counts as binding.
Experiment [7] deals with Bcl-xL (residues 1-209, loop 45-86 deleted) (Homo sapiens (Human), UniProt Q07817, DEL45-86). In words: Fluorescence polarization anisotropy competition selectivity assay (FITC-Bak peptide) with Bcl-xL. It counts as binding. The following applies: Table 3; 4 nM Bcl-xL, 10 nM FITC-Bak. As to the method: (§2) Compound affinity was measured using a fluorescence polarization anisotropy competition assay. Anisotropy measurements were carried out in 384-well, black, flat-bottom plates (Greiner Bio-one, Monroe, N.C., USA). The assay was run using either a fluorescein isothiocyanate-labeled BH3 peptide derived from Bak (FITC-AHx-[…]-NH2) or a fluorescein isothiocyanate-labeled BH3 peptide derived from Bim (FITC-AHx-[…]-NH2) that were purchased from GenScript (Piscataway, N.J.) at >95% purity and used without further purification. 10 nM FITC-Bak peptide and 15 nM recombinant Mcl-1 (residues 172-327) were added to assay buffer (3 mM dithiothreitol, 50 mM NaCl, 20 mM Tris, pH 7.5). The Bim based assay was run with 1 nM FITC-Bim peptide and 1.5 nM recombinant Mcl-1 (residues 172-327) added to assay buffer (20 mM TRIS pH 7.5, 50 mM NaCl, 3 mM DTT, 0.01% CHAPS). For selectivity assays, 40 nM Bcl-2 (residues 1-207^A96T,G110R, Δ35-91, replaced with Bcl-xL35-50) or 4 nM Bcl-xL (residues 1-209, loop 45-86 deleted) were incubated with 10 nM FITC-Bak in assay buffer.
Bcl-xL (residues 1-209, loop 45-86 deleted), sequence (Q07817 other isoform, or with tags, fused parts or gaps del 45-86): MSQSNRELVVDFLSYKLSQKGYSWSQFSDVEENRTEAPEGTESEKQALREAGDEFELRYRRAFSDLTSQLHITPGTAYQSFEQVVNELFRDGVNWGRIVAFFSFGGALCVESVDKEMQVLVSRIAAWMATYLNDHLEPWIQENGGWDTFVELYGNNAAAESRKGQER
(§3) Compounds are diluted in DMSO in a 10-point, 3-fold serial dilution scheme. For the FITC-BAK assay 2.5 uL compound is added to 47.5 μL of assay buffer containing FITC-Bak and protein, for a final DMSO concentration of 5% and a top concentration of 20 μM. […] […]. The plate was mixed and incubated for 90 minutes at room temperature. Anisotropy is measured at excitation wavelength 480 nm and emission wavelength 535 nm using an EnVision Multi-label plate reader (PerkinElmer, Wellesley, Mass., USA) or a BioTek Cytation 3 (BioTek, Winooski, Vt., USA). […] IC50 is converted to a binding dissociation constant (Ki value) according to the formula of Wang Z. FEBS Lett (1996) 3, 245.

The target in experiment [8] is Bcl-2 (residues 1-207 A96T,G110R, Δ35-91, replaced with Bcl-xL35-50) (Homo sapiens, UniProt P10415, A37E/DEL42-87/G36T/INS34DVEEN/P40E/P88T/P90S/P91E/V35R/V89E). In words: Fluorescence polarization anisotropy competition selectivity assay (FITC-Bak peptide) with Bcl-2. It counts as binding. The note with it: Table 3; 40 nM Bcl-2, 10 nM FITC-Bak. As to the method:
as §2, §3

Setting [9] is: Table 2, Ki bins given in nM, FITC-Bak or FITC-Bim peptide competition, Ki converted from IC50, read-out: Ki for Inhibition of Mcl-1.
Where [10] appears, read: Table 3, selectivity panel, read-out: Mcl-1 Ki.

Results on 14 compounds are retold here after US10533010B2, “Substituted indole Mcl-1 inhibitors” (Vanderbilt University, priority 2014, dated 2020).

The structures appear in SMILES notation. Read-outs that look alike come from different tables or passages of the source.

recombinant Mcl-1 (residues 172-327), sequence (Q07820 172-327): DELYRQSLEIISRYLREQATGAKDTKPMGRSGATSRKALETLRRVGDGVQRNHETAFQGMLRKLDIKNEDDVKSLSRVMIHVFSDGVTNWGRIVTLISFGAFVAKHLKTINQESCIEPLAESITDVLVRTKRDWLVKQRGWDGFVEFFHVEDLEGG

Turning to `Cc1cc(OCCCc2c3n(c4c(-c5c(C)nn(C)c5C)c(Cl)ccc24)CCCN(c2cccc(CC(=O)O)c2)C3=O)cc(C)c1Cl` [I-236, 2-(3-(8-chloro-11-(3-(4-chloro-3,5-dimethylphenoxy)propyl)-1-oxo-7-(1,3,5-trimethyl-1H-pyrazol-4-yl)-4,5-dihydro-H-[1,4]diazepino[1,2-a]indol-2(3H)-yl)phenyl)acetic acid], the IC50 in experiment [1] came out at 7.2 µM; in experiment [2], 7.3 µM; in experiment [3], 25 µM; in experiment [4], 6.9 µM; in experiment [5], 12.2 µM. The Ki in experiment [6] (setting [9]) is under 50 nM.
With `Cc1cc(OCCCc2c(C(=O)NCc3cc(C(=O)O)n(C)c3)[nH]c3c(-c4c(C)nn(C)c4C)cccc23)cc(C)c1Cl` [I-74, 4-((3-(3-(4-chloro-3,5-dimethylphenoxy)propyl)-7-(1,3,5-trimethyl-1H-pyrazol-4-yl)-1H-indole-2-carboxamido)methyl)-1-methyl-1H-pyrrole-2-carboxylic acid], the Ki in experiment [6] (setting [9]) was […]; in experiment [6] (setting [10]), […]; in experiment [7], over 100 µM; in experiment [8], 3.54 µM.
As to `Cc1cc(OCCCc2c3n(c4c(-c5c(C)nn(C)c5C)c(Cl)ccc24)CCCN(Cc2cccc(C(=O)O)c2)C3=O)cc(C)c1Cl` [I-80, 3-((8-chloro-11-(3-(4-chloro-3,5-dimethylphenoxy)propyl)-1-oxo-7-(1,3,5-trimethyl-1H-pyrazol-4-yl)-4,5-dihydro-1H-[1,4]diazepino[1,2-a]indol-2(3H)-yl)methyl)benzoic acid], the figures for the inhibition constant Ki in experiment [7] and in experiment [8] were 6.75 µM and 2.34 µM, respectively.
The matching figures for `Cc1cc(OCCCc2c(C(=O)NCc3c[nH]c(C(=O)O)c3)[nH]c3c(-c4c(C)nn(C)c4C)cccc23)cc(C)c1Cl` [I-71, 4-((3-(3-(4-chloro-3,5-dimethylphenoxy)propyl)-7-(1,3,5-trimethyl-1H-pyrazol-4-yl)-1H-indole-2-carboxamido)methyl)-1H-pyrrole-2-carboxylic acid]: 13.8 µM and 5.95 µM.
In the case of `Cc1cc(OCCCc2c(C(=O)N(C)c3cccc(C(=O)O)c3)n(C)c3c(-c4c(C)nn(C)c4C)c(Cl)ccc23)cc(C)c1Cl` [I-189, 3-(6-chloro-3-(3-(4-chloro-3,5-dimethylphenoxy)propyl)-N,1-dimethyl-7-(1,3,5-trimethyl-1H-pyrazol-4-yl)-1H-indole-2-carboxamido)benzoic acid], the Ki was under 50 nM in experiment [6] (setting [9]), under 7 nM in experiment [6] (setting [10]), 4.63 µM in experiment [7] and 1.37 µM in experiment [8].
As to `Cc1cc(OCCCc2c(C(=O)NCc3cc(C(=O)O)ccn3)[nH]c3c(-c4c(C)nn(C)c4C)cccc23)cc(C)c1Cl` [I-280, 2-((3-(3-(4-chloro-3,5-dimethylphenoxy)propyl)-7-(1,3,5-trimethyl-1H-pyrazol-4-yl)-1H-indole-2-carboxamido)methyl)isonicotinic acid], the inhibition constant Ki in experiment [7] stood at 27 µM; in experiment [8], 7.9 µM.
Take `Cc1cc(C(=O)O)cc(N2CCCn3c(c(CCCOc4cc(C)c(Cl)c(C)c4)c4ccc(Cl)c(-c5c(C)nn(C)c5C)c43)C2=O)c1` [I-220, 3-(8-chloro-11-(3-(4-chloro-3,5-dimethylphenoxy)propyl)-1-oxo-7-(1,3,5-trimethyl-1H-pyrazol-4-yl)-4,5-dihydro-1H-[1,4]diazepino[1,2-a]indol-2(3H)-yl)-5-methylbenzoic acid]: the IC50 in experiment [2] worked out at 4.9 µM; in experiment [3], 14.8 µM. Besides, in experiment [6] (setting [9]), the inhibition constant (Ki) is under 50 nM.
Take `Cc1cc(OCCCc2c3n(c4c(-c5c(C)nn(C)c5C)cccc24)CCN(Cc2cccc(C(=O)O)c2)C3=O)cc(C)c1Cl` [I-31, 3-((10-(3-(4-chloro-3,5-dimethylphenoxy)propyl)-1-oxo-6-(1,3,5-trimethyl-1H-pyrazol-4-yl)-3,4-dihydropyrazino[1,2-a]indol-2(1H)-yl)methyl)benzoic acid]: the IC50 in experiment [1] turned out to be 16.3 µM; in experiment [2], 15 µM; in experiment [3] it was 40 µM; in experiment [4] it was 13.1 µM; in experiment [5] it was 33.9 µM. In addition, the Ki in experiment [6] (setting [9]) was […]; in experiment [6] (setting [10]), […]; in experiment [7], 6.44 µM; in experiment [8] it was 2.2 µM.
With `Cc1cc(OCCCc2c(C(=O)Nc3cccc(C(=O)O)c3)n(C)c3c(-c4c(C)nn(C)c4C)c(Cl)ccc23)cc(C)c1Cl` [I-188, 3-(6-chloro-3-(3-(4-chloro-3,5-dimethylphenoxy)propyl)-1-methyl-7-(1,3,5-trimethyl-1H-pyrazol-4-yl)-1H-indole-2-carboxamido)benzoic acid], the figures for the Ki in experiment [7] and in experiment [8] were 15.6 µM and 5.3 µM, respectively.
On the same counts, the results for `Cc1cc(OCCCc2c3n(c4c(-c5c(C)nn(C)c5C)cccc24)CCCN(Cc2cccc(C(=O)O)c2)C3=O)cc(C)c1Cl` [I-32, 3-((11-(3-(4-chloro-3,5-dimethylphenoxy)propyl)-1-oxo-7-(1,3,5-trimethyl-1H-pyrazol-4-yl)-4,5-dihydro-1H-[1,4]diazepino[1,2-a]indol-2(3H)-yl)methyl)benzoic acid] are 13.4 µM and 3.82 µM.
On the same counts, the results for `Cc1cc(OCCCc2c(C(=O)Nc3cc(C(=O)O)ccn3)[nH]c3c(-c4c(C)nn(C)c4C)c(Cl)ccc23)cc(C)c1Cl` [I-183, 2-(6-chloro-3-(3-(4-chloro-3,5-dimethylphenoxy)propyl)-7-(1,3,5-trimethyl-1H-pyrazol-4-yl)-1H-indole-2-carboxamido)isonicotinic acid] are 14.4 µM and 2.9 µM.
On the same counts, the results for `Cc1cc(OCCCc2c(C(=O)Nc3cncc(C(=O)O)c3)[nH]c3c(-c4c(C)nn(C)c4C)c(Cl)ccc23)cc(C)c1Cl` [I-181, 5-(6-chloro-3-(3-(4-chloro-3,5-dimethylphenoxy)propyl)-7-(1,3,5-trimethyl-1H-pyrazol-4-yl)-1H-indole-2-carboxamido)nicotinic acid] are 61.5 µM and 3.2 µM.
For the compound `Cc1cc(OCCCc2c(C(=O)Nc3cccc(C(=O)O)c3)[nH]c3c(-c4c(C)nn(C)c4C)c(Cl)ccc23)cc(C)c1Cl` [I-39, 3-(6-chloro-3-(3-(4-chloro-3,5-dimethylphenoxy)propyl)-7-(1,3,5-trimethyl-1H-pyrazol-4-yl)-1H-indole-2-carboxamido)benzoic acid], the Ki in experiment [7] came out at 4.59 µM; in experiment [8] it was 1.54 µM.
For the compound `Cc1cc(OCCCc2c(C(=O)Nc3ccc(C(=O)O)cc3)[nH]c3c(-c4c(C)nn(CCN5CCOCC5)c4C)c(Cl)ccc23)cc(C)c1Cl` [I-190, 4-(6-chloro-3-(3-(4-chloro-3,5-dimethylphenoxy)propyl)-7-(3,5-dimethyl-1-(2-morpholinoethyl)-1H-pyrazol-4-yl)-1H-indole-2-carboxamido)benzoic acid], the Ki in experiment [6] (setting [9]) is […]; in experiment [6] (setting [10]), […]; in experiment [7] it was 45.6 µM; in experiment [8] it was 1.64 µM.
